Results reported in patent US20230053540A1, “TREATMENT OF LIVER INJURY” (Massachusetts Institute of Technology, priority 2019, published 2023).

Test system: hepatocytes
Assay: Seq-Well scRNA-Seq of hepatocytes after APAP overdose (signature scores, DEG vs untreated)
Type: in vivo, mouse
Conditions: APAP vs UT

CC(=O)Nc1ccc(O)cc1 [APAP, acetaminophen]
Ndufb4 logFC: −0.4537
Ndufb6 logFC: −0.5077
Ndufb9 logFC: −0.5038
Ndufb11 logFC: −0.5097
Ndufs6 logFC: −0.5379
Nedd4 logFC: 0.3774
Nit2 logFC: −0.4859
Nolc1 logFC: 0.4722
Nop56 logFC: 0.2657
Nr5a2 logFC: 0.322
Nrp1 logFC: 0.3608
Oaz1 logFC: −0.4185
Orm2 logFC: 0.2715
Pah logFC: −0.5221
Park7 logFC: −0.2602
Pdcd4 logFC: 0.4882
Pdia4 logFC: 0.4882
Pdia6 logFC: −0.39
Pemt logFC: −0.5512
Pfkfb2 logFC: 0.29
Picalm logFC: 0.7545
Pik3c2a logFC: 0.3249
Plec logFC: 0.4675
Plg logFC: 0.2617
Ppan logFC: 0.2724
Ppib logFC: −0.5897
Ppm1k logFC: −0.5584
Ppp1r3b logFC: −0.4027
Ppp2r5a logFC: −0.2605
Prg4 logFC: 0.4306
Prkd3 logFC: 0.3665
Pten logFC: 0.3559
Ptms logFC: 0.2678
Ptpn1 logFC: 0.4163
Ptpn12 logFC: 0.3342
Qdpr logFC: −0.5236
Qsox1 logFC: 0.3424
Rab1 logFC: 0.3526
Rad54l2 logFC: 0.3887
Ranbp2 logFC: 0.5985
Rarres2 logFC: −0.5522
Rdh16 logFC: 0.2692
Rgs2 logFC: 0.3957
Rnd3 logFC: 0.3655
Rock2 logFC: 0.5941
Rora logFC: 0.6444
Rpl32 logFC: −0.5322
Rpl36a1 logFC: −0.4755
Rplp1 logFC: −0.5047
Rpn1 logFC: 0.4124
Rps2 logFC: −0.3879
Rrbp1 logFC: 0.3069
S100a1 logFC: −0.3762
Saa4 logFC: −0.571
Sar1b logFC: −0.3176
Sat1 logFC: 0.6887
Sc5d logFC: −0.5009
Sdad1 logFC: 0.3124
Sdc3 logFC: 0.3598
Sdc4 logFC: 0.6196
Sdhd logFC: −0.3353
Sds logFC: −0.407
Sec61a1 logFC: 0.3139
Selenbp1 logFC: −0.4937
Serp1 logFC: 0.3124
Serpina3c logFC: −0.4725
Sfxn1 logFC: 0.3049
Slc2a2 logFC: −0.3123
Slc3a1 logFC: 0.341
Slc10a2 logFC: 0.299
Slc20a1 logFC: 0.3572
Slc37a4 logFC: 0.2683
Slc38a3 logFC: −0.4098
Slc38a4 logFC: 0.2637
Slco1a1 logFC: −0.3628
Son logFC: 0.5429
Sorl1 logFC: 0.3067
Sparcl1 logFC: −0.2536
Spcs3 logFC: 0.3942
Spred1 logFC: 0.3884
Sqstm1 logFC: 0.7432
Ssr1 logFC: 0.3278
Ssr4 logFC: −0.5076
St3gal1 logFC: 0.5287
Stard4 logFC: 0.3515
Stard10 logFC: −0.3383
Stat3 logFC: 0.7154
Stk40 logFC: 0.5364
Tacc2 logFC: 0.3293
Tatdn2 logFC: 0.3733
Tbc1d15 logFC: 0.4886
Tcerg1 logFC: 0.3575
Thrsp logFC: −0.725
Tiparp logFC: 0.5456
Tjp2 logFC: 0.4115
Tlcd2 logFC: −0.5945
Tm4sf4 logFC: 0.5126
Tmed7 logFC: 0.3868
Tmem30a logFC: 0.3328
Tmem87b logFC: 0.4344
Tmem106b logFC: 0.2802
Tmem256 logFC: −0.5185
Tnfrsf1a logFC: 0.5996
Tra2a logFC: 0.7123
Tram1 logFC: 0.4111
Trip12 logFC: 0.3283
Tsc22d2 logFC: 0.3911
Tsku logFC: 0.3676
Tsr1 logFC: 0.3603
Ttc39c logFC: −0.6363
Tubb2a logFC: 0.7494
Ubxn4 logFC: 0.2503
Ucp2 logFC: 0.2612
Ugdh logFC: 0.6331
Uggt1 logFC: 0.2845
Ugt2a3 logFC: −0.3334
Uox logFC: −0.5531
Upb1 logFC: −0.4187
Upp2 logFC: −0.6903
Uqcr10 logFC: −0.4519
Uqcr11 logFC: −0.6031
Uqcrh logFC: −0.4292
Usmg5 logFC: −0.4305
Uso1 logFC: 0.3881
Usp4 logFC: 0.3247
Usp9x logFC: 0.4076
Vkorc1 logFC: −0.4042
Vsig4 logFC: 0.4833
Wfdc17 logFC: 0.4867
Xbp1 logFC: 0.6032
Ywhag logFC: 0.5824
Zfp683 logFC: −0.4217
mmu-mir-6236 logFC: 0.7875
mt-Atp6 logFC: −0.5737
mt-Nd6 logFC: −0.4779
mt-Tm logFC: 0.2847
mt-Tq logFC: 0.2879
15-Sep logFC (composite DEG): −0.4092
0610005C13Rik logFC (composite DEG): −0.4251
0610011F06Rik logFC (composite DEG): −0.3037
1100001G20Rik logFC (composite DEG): −0.8516
1110001J03Rik logFC (composite DEG): −0.4328
1500011K16Rik logFC (composite DEG): −0.3296
1500017E21Rik logFC (composite DEG): −0.461
1700017B05Rik logFC (composite DEG): 0.3307
1810022K09Rik logFC (composite DEG): −0.3001
2010003K11Rik logFC (composite DEG): 0.5884
2010107E04Rik logFC (composite DEG): −0.3182
2410015M20Rik logFC (composite DEG): −0.4021
2810007J24Rik logFC (composite DEG): −0.9143
AW112010 logFC (composite DEG): −0.2981
Aadat logFC (composite DEG): −0.3186
Aass logFC (composite DEG): 0.4775
Abca6 logFC (composite DEG): 0.3328
Abcb4 logFC (composite DEG): 0.4947
Abcc3 logFC (composite DEG): 0.3638
Abcd2 logFC (composite DEG): 0.2851
Abcd3 logFC (composite DEG): −0.2718
Abhd14b logFC (composite DEG): −0.3937
Acad11 logFC (composite DEG): 0.3571
Acadl logFC (composite DEG): 0.3162
Acads logFC (composite DEG): −0.3242
Acat1 logFC (composite DEG): 0.3689
Acbd5 logFC (composite DEG): −0.3952
Acly logFC (composite DEG): 0.3288
Aco2 logFC (composite DEG): 0.2859
Acot1 logFC (composite DEG): 0.3078
Acot12 logFC (composite DEG): 0.3078
Acsl1 logFC (composite DEG): −0.3703
Acsm1 logFC (composite DEG): −0.3692
Actb logFC (composite DEG): 1.06
Actn4 logFC (composite DEG): 0.3124
Acy3 logFC (composite DEG): −0.3137
Adamts1 logFC (composite DEG): 0.2826
Adck3 logFC (composite DEG): −0.8761
Adh1 logFC (composite DEG): −1.255
Adtrp logFC (composite DEG): −0.3664
Aff4 logFC (composite DEG): 0.6163
Agpat2 logFC (composite DEG): −0.2982
Agpat6 logFC (composite DEG): 0.3963
Agpat9 logFC (composite DEG): 0.327
Agxt logFC (composite DEG): −0.2584
Ahcy logFC (composite DEG): −0.563
Ak2 logFC (composite DEG): −0.3451
Akap11 logFC (composite DEG): 0.3464
Akap13 logFC (composite DEG): 0.4953
Akr1a1 logFC (composite DEG): −0.3269
Akr1c19 logFC (composite DEG): −0.2727
Akr1d1 logFC (composite DEG): 0.361
Alad logFC (composite DEG): −0.4206
Aldh4a1 logFC (composite DEG): −0.2907
Aldh9a1 logFC (composite DEG): 0.4159
Aldob logFC (composite DEG): 0.3655
Amacr logFC (composite DEG): −0.4136
Amy1 logFC (composite DEG): 0.4327
Anapc13 logFC (composite DEG): −0.3642
Ankrd11 logFC (composite DEG): 0.4156
Anp32a logFC (composite DEG): −0.317
Apc logFC (composite DEG): 0.6067
Apcs logFC (composite DEG): 0.7584
Aplp2 logFC (composite DEG): 0.3394
Apoa4 logFC (composite DEG): 1.368
